Test results: patent publication US7247725B2, “Gamma-aminoamide modulators of chemokine receptor activity” (Merck & Co., Inc., priority 2002, dated 2007)

Target: CCR-2 (Homo sapiens, UniProt P41597)
Assay: relative activity of separated diastereomers (assay not stated)
Conditions: single isomers separated by chiral HPLC (ChiralPak OD); fast vs slow isomer

Sequence of CCR-2 (P41597 whole entry): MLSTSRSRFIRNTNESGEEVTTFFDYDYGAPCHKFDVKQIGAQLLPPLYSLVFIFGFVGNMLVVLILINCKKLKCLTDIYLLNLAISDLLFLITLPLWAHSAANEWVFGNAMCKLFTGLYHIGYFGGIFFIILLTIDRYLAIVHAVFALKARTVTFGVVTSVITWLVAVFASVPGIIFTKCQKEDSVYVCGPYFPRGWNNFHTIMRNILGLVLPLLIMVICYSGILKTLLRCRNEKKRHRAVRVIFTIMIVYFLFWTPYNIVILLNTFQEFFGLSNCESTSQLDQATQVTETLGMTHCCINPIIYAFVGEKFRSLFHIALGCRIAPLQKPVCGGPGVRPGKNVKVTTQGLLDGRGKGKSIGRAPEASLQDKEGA

| SMILES | relative activity of the two diastereomers epimeric α to the amide carbonyl |
| --- | --- |
| CC(=O)Nc1nc([C@@H](CCN2CC[C@@]3(C=Cc4ccccc43)[C@@H](C)C2)C(=O)NCc2cc(C(F)(F)F)cc(C(F)(F)F)c2)cs1 [Example 52h-(R)] | less active |
| CC(=O)Nc1nc([C@H](CCN2CC[C@@]3(C=Cc4ccccc43)[C@@H](C)C2)C(=O)NCc2cc(C(F)(F)F)cc(C(F)(F)F)c2)cs1 [Example 52h-(S)] | more active |
